# Reference: patent US4990613A, “(1R,5S,6S)-2-[(6,7-dih ydro-5H-pyrazolo[1,2-a][1,2,4]triazolium-6-yl)]thio-6-[R-1-hydroxyethyl]- 1-methyl-carbapenem-3-carboxylate and intermediate therefor” (Lederle (Japan), Ltd., priority 1987, dated 1991)
# Where two headings read alike, the source gives them in different places.
# Experiments:
# [1] = system: Escherichia coli K12 C600; assay: Antibacterial test, agar plate dilution method; format: cell-based; details: Escherichia coli, K12C600; 37° C., 18 hours, MH agar; read-out: MIC
# Salmonella typhi 901 = assay: Antibacterial test, agar plate dilution method; format: cell-based; details: Salmonella enterica, TYPHI, 18 h
# [2] = system: Salmonella paratyphi 1015; assay: Antibacterial test, agar plate dilution method; format: cell-based; details: Salmonella enterica, PARATYPHI, 18 h
# [3] = system: Citrobactor freundii GN 346; assay: Antibacterial activity against clinically isolated β-lactamase producing strains; format: cell-based; details: cephalosporinase producing strain, 18 to 20 hours; read-out: MIC
# Protocol: (§1) A solution of a cephalosporinase producing strain stored by Episome Research Institute, which was prepared by incubating the strain in a sensitivity test broth (STB; product of Nissui K.K.) for 18 hours, was diluted with a fresh STB solution to contain 10^5 cells per milliliter and the diluted solution was then inoculated as spots with a microplanter on a sensitivity disk agar-N (SDA; product of Nissui K.K.) containing a test compound. The disk agar was then incubated for 18 to 20 hours. A minimum inhibitory concentration was determined as a minimum concentration in which the test microorganism had no longer grown after a 18 to 20 hour incubation.
# [4] = system: Citrobactor freundii GN 7391; assay: as above; format: cell-based; details: cephalosporinase producing strain, 18 to 20 hours; read-out: MIC
# Protocol: as §1
# Escherichia coli GN 5482 = assay: as above; format: cell-based; details: Escherichia coli, GN5482; cephalosporinase producing strain, 18 to 20 hours; read-out: MIC
# Protocol: as §1
# [5] = system: Escherichia coli No. 1501; assay: as above; format: cell-based; details: Escherichia coli, NO.1501; cephalosporinase producing strain, 18 to 20 hours; read-out: MIC
# Protocol: as §1
# Escherichia coli No. 96 = assay: as above; format: cell-based; details: Escherichia coli, NO.96; cephalosporinase producing strain, 18 to 20 hours; read-out: MIC
# Protocol: as §1
# [6] = system: Klebsiella oxytoca GN 10650; assay: as above; format: cell-based; details: Klebsiella oxytoca, GN10650; cephalosporinase producing strain, 18 to 20 hours; read-out: MIC
# Protocol: as §1
# Proteus morganii GN 5307 = assay: as above; format: cell-based; details: Morganella morganii, GN5307; cephalosporinase producing strain, 18 to 20 hours; read-out: MIC
# Protocol: as §1
# Proteus morganii GN 5407 = assay: as above; format: cell-based; details: Morganella morganii, GN5407
# Protocol: as §1
# [7] = system: Providencia rettgeri GN 4430; assay: as above; format: cell-based; details: Providencia rettgeri, GN4430; cephalosporinase producing strain, 18 to 20 hours; read-out: MIC
# Protocol: as §1
# [8] = system: Providencia rettgeri GN 4762; assay: as above; format: cell-based; details: Providencia rettgeri, GN4762; cephalosporinase producing strain, 18 to 20 hours; read-out: MIC
# Protocol: as §1
# [9] = system: Providencia rettgeri GN 5284; assay: as above; format: cell-based; details: Providencia rettgeri, GN5284; cephalosporinase producing strain, 18 to 20 hours; read-out: MIC
# Protocol: as §1
# [10] = system: Pseudomonas aeruginosa GN 10362; assay: as above; format: cell-based; details: Pseudomonas aeruginosa, GN10362
# Protocol: as §1
# [11] = system: Pseudomonas aeruginosa GN 10367; assay: as above; format: cell-based; details: Pseudomonas aeruginosa, GN10367
# Protocol: as §1
# [12] = system: Pseudomonas cepacia GN 11164; assay: as above; format: cell-based; details: Burkholderia cepacia, GN11164
# Protocol: as §1
# [13] = system: Serratia marcescens GN 10857; assay: as above; format: cell-based; details: Serratia marcescens, GN10857
# Protocol: as §1
# [14] = system: Staphylococcus aureus FDA 209P JC-1; assay: Antibacterial test, agar plate dilution method; details: Staphylococcus aureus, FDA209P, 18 h
# [15] = system: Staphylococcus aureus Terajima; assay: Antibacterial test, agar plate dilution method; details: Staphylococcus aureus, 18 h
# [16] = system: Staphylococcus aureus MS352; assay: Antibacterial test, agar plate dilution method; details: Staphylococcus aureus, MS352, 18 h
# [17] = system: Bacillus subtilis ATCC6633; assay: Antibacterial test, agar plate dilution method; details: Bacillus subtilis, ATCC6633, 18 h
# [18] = system: Escherichia coli NIHJ JC-2; assay: Antibacterial test, agar plate dilution method; details: Escherichia coli, NIHJJC2, 18 h
# [19] = system: Enterobacter aerougenes ATCC13048; assay: Antibacterial test, agar plate dilution method; details: Enterobacter, ATCC13048, 18 h
# Enterobacter cloacae 963 = assay: Antibacterial test, agar plate dilution method; details: Enterobacter cloacae, 963, 18 h
# [20] = system: Salmonella typhimurium IID971; assay: Antibacterial test, agar plate dilution method; details: Salmonella enterica, 18 h
# [21] = system: Salmonella schottmuelleri 8006; assay: Antibacterial test, agar plate dilution method; details: Salmonella, 8006, 18 h
# [22] = system: Salmonella enteritidis G14; assay: Antibacterial test, agar plate dilution method; details: Salmonella enterica, ENTERITIDIS, 18 h
# [23] = system: Serratia marcescens IAM1184; assay: Antibacterial test, agar plate dilution method; details: Serratia marcescens, IAM1184, 18 h
# [24] = system: Morganella morganii IFO3848; assay: Antibacterial test, agar plate dilution method; details: Morganella morganii, IFO3848, 18 h
# [25] = system: Providencia rettgeri IFO 3850; assay: Antibacterial test, agar plate dilution method; details: Providencia rettgeri, IFO3850, 18 h
# [26] = system: Pseudomonas aeruginosa IFO 3445; assay: Antibacterial test, agar plate dilution method; details: Pseudomonas aeruginosa, IFO3445, 18 h
# [27] = cephalosporinase producing strain, 18 to 20 hours, read-out: MIC
SMILES,MIC [1],MIC (Salmonella typhi 901),MIC [2],MIC [3],MIC [4],MIC (Escherichia coli GN 5482),MIC [5],MIC (Escherichia coli No. 96),MIC [6],MIC (Proteus morganii GN 5307),MIC [7],MIC [8],MIC [9],MIC [11],MIC [14],MIC [15],MIC [16],MIC [17],MIC [18],MIC [19],also measured
Cc1nnc(SCC2=C(C(=O)O)N3C(=O)[C@@H](NC(=O)Cn4cnnn4)[C@H]3SC2)s1 [CEZ],0.78 µg/mL,0.78 µg/mL,1.56 µg/mL,25 µg/mL,> 100 µg/mL,0.78 µg/mL,0.2 µg/mL,0.78 µg/mL,0.2 µg/mL,0.2 µg/mL,0.2 µg/mL,0.78 µg/mL,0.2 µg/mL,3.13 µg/mL,0.2 µg/mL,0.05 µg/mL,0.1 µg/mL,0.1 µg/mL,0.78 µg/mL,> 100 µg/mL,"MIC (Proteus morganii GN 5407; [27]): 0.39 µg/mL; MIC [10]: 3.13 µg/mL; MIC [12, 27]: 0.78 µg/mL; MIC [13, 27]: 0.78 µg/mL; MIC (Enterobacter cloacae 963): > 100 µg/mL; MIC [20]: 0.78 µg/mL; MIC [21]: 0.78 µg/mL; MIC [22]: 0.78 µg/mL; MIC [23]: > 100 µg/mL; MIC [24]: 25 µg/mL; MIC [25]: 12.5 µg/mL; MIC [26]: > 100 µg/mL"
C[C@@H](O)[C@H]1C(=O)N2C(C(=O)O)=C(SCCN=CN)C[C@H]12 [Imipenem],3.13 µg/mL,0.1 µg/mL,1.56 µg/mL,0.39 µg/mL,0.78 µg/mL,0.1 µg/mL,0.1 µg/mL,0.1 µg/mL,0.2 µg/mL,0.78 µg/mL,0.39 µg/mL,0.39 µg/mL,0.39 µg/mL,1.56 µg/mL,0.025 µg/mL,< 0.006 µg/mL,0.013 µg/mL,0.025 µg/mL,0.1 µg/mL,0.2 µg/mL,"MIC (Proteus morganii GN 5407): 3.13 µg/mL; MIC [10, 27]: 0.78 µg/mL; MIC [12]: 3.13 µg/mL; MIC [13]: 3.13 µg/mL; MIC (Enterobacter cloacae 963): 0.2 µg/mL; MIC [20]: 0.39 µg/mL; MIC [21]: 0.78 µg/mL; MIC [22]: 0.78 µg/mL; MIC [23]: 0.39 µg/mL; MIC [24]: 0.39 µg/mL; MIC [25]: 0.78 µg/mL; MIC [26]: 0.78 µg/mL"
